“And” between values parts separate entries of the source, which are not always exact repeats. Equal entries are not always repeated. One block for each molecule: values may come before it.
Columns and labels:
[1] = tested on: Mouse bone marrow-derived mast cells; experiment: Mast cell beta-hexosaminidase release (degranulation); format: cell-based
Procedure: (§1) By preventing mast cell degranulation, it is possible to prevent or control a patient's allergic response. Bone marrow obtained from Balb/C mice femurs was cultured in a 1:1 mixture of Razin media and conditioned media, produced by co-culturing splenocytes from C57B1/6J and C3H mice in the present of Concanavalin A as described by Razin et al. in the Proc. Natl. Acad. Sci. USA 28: 2559-2561, 1981. After weekly passaging and at least 15 days in tissue culture, the resulting cells were 90% pure mast cells and 95% viable as assessed by Trypan blue exclusion. Cells exposed to ribavirin in culture were washed three times prior to use in experiments. Parallel cultures of cells grown in media alone were used as controls for pharmacologically manipulated mast cells. Cell growth was assessed by counting cells at particular time pints and comparing actual numbers of ribavirin-treated cells to numbers of cells grown in media alone.
β-hexosaminidase was chosen as a representative granule-associated, preformed mast cell mediator because it is easily quantitated, and its release nearly identically parallels that of histamine. Mouse bone marrow-derived mast cells were centrifuged at 200×g for 5 minutes, washed three times in Tyrode's buffer lacking divalent cations, sensitized for 30 minutes at 37° C. with anti-DNP (dinitrophenyl phosphate) IgE (1 μg/10^6 cells), and challenged with either DNP-BSA antigen ([…]/3×10^5 cells) or A23187 (10 μg/ml/3×10^5 cells) in 400 μl of complete Tyrode's buffer for 10 minutes at 37° C. Reaction mixtures were centrifuged at 200×g for 10 minutes, and supernatant and pellet β-hexasaminidase concentrations were assayed by the hydrolysis of p-nitrophenyl-β-D-glucosamide as described in Schwartz et al. in J. Immunol. […] Spontaneous β-hexosaminidase release was determined in unchallenged cells. The net % of β-hexosaminidase released is defined as follows: [formula] where [β-hex] is βhexosaminidase and super, is supernatant. When exogenous adenosine was present in reaction mixtures, it was added simultaneously with the secretagogue.

[2] = tested on: HPRT- neuroblastoma cells; experiment: Adenosine excretion by stimulated HPRT- neuroblastoma cells (calcium ionophore A23187); format: cell-based; conditions: for correction of lowered adenosine secretion of cells deficient in hypoxanthine phosphoribosyl transferase: pretreatment
Procedure: (§2) To induce ATP catabolism, the growth medium was replaced by medium containing micromolar amounts of the calcium ionophore A23187 and 1.0 μM deoxycoformycin.

ischemic myocardium [3] = tested on: ischemic myocardium
Procedure: Regional myocardial blood flow was measured using radiolabelled microspheres infused into the left atrium at 5 minutes (open) and 60 minutes (hatched) of occlusion. The means plus the standard deviations are graphed. The asterisks (*) identify differences from saline-treated dogs that are significant at p<0.01.
Thirteen mongrel dogs were anesthetized with phenobarbital. The anterior coronary vein was cannulated and a blood sample was collected into 2N perchloric acid. […] Regional myocardial blood flow was measured within 15 μm radiolabelled spheres infused into the left atrium at 5 and 60 minutes during the ischemic period, as described by Heymann et al. in Prog. […] The electrocardiogram and arterial pressure were monitored throughout the period of ischemia.

[4] = tested on: pentylene tetrazol-induced seizures; experiment: Pentylene tetrazol-induced seizures in the rat; format: in vivo; conditions: 2000 mg/kg (total dose) intraperitoneal
ischemic myocardium [5] = experiment: Venous inosine levels during coronary artery occlusion in dogs; format: in vivo, dog; conditions: over the 60-minute assay period
Procedure: (§3) Thirteen mongrel dogs were anesthetized with phenobarbital. […] C.V. Dis. 20; 55 (1977). […] Two of the surviving saline-treated animals fibrillated. […] The range was 4.4 to 100 μM.
That the increase in the levels of adenosine is due, at least in part, to a reduction in the amount of ATP that is converted to inosine was shown by analysis of venous blood from dogs in Example III for inosine levels.

[6] = tested on: human splenic lymphoblast cell line (WI-L2); experiment: Adenosine release by WI-L2 lymphoblasts during ATP breakdown (2-deoxyglucose); format: cell-based
Procedure: The history and properties of the cell line have been described by Hershfield et al. in Science, Vol. 197, p. 1284, 1977.
Catabolism of cellular ATP stores was stimulated by adding either 2-deoxyglucose or a calcium ionophore. At various times, the amount of adenosine released by the cells into the supernatant, or the amount of nucleotides remaining in the cells, was determined by mixing 3 μl of chilled 4.4N perchloric acid with 300 μl of supernatants, or by adding 300 μl of chilled 0.4N perchloric acid to the cell collected as pellets and centrifuging the mixtures at 500×G for 10 minutes at 4° C. […] 1245, 1975. Following centrifugation at 1500×G for three minutes at 4° C., the aqueous phase is removed and frozen at -20° C. until assayed for adenosine, inosine, or for nucleotides. Adenosine was evaluated isocratically on a C-18 microBondapak reverse phase column equilibrated with 4 millimolar potassium phosphate, (pH 3.4):acetonitrile 60% in water (95:5 v/v) buffer. Adenosine elutes at 8-10 minutes, and its identity was confirmed by its sensitivity to adenosine deaminase and by spiking with adenosine standards. The extracted samples from the cell pellet were analyzed for nucleotides by high pressure liquid chromatography on a Whatman Partisil-10 (SAX) column equilibrated with 10 millimolar potassium phosphate, pH 3.78, and eluted with a linear gradient to a 0.25 molar potassium phosphate, 0.5 molar KCl, pH 3.45. […] Peaks were quantitated by comparison with high pressure liquid chromatography analysis of suitable standards.
Cells were grown to about 0.5×10^6 cells/ml (mid-log phase) in FIG. 2 and to about 1.0×10^6 cells/ml (early stationary phase) in FIGS. 7-9.

[7] = tested on: HPRT+ neuroblastoma cells; experiment: Adenosine excretion by stimulated HPRT+ neuroblastoma cells (calcium ionophore A23187); format: cell-based
Procedure: as §2

[8] = tested on: ischemia-induced arrhythmias; experiment: Arrhythmias during myocardial ischemia in dogs (electrocardiogram); format: in vivo, dog; conditions: individual treated dogs 1-6
Procedure: as §3
One consequence of myocardial ischemia is arrhythmia and the frequency of arrhythmias is related to the degree of reduced blood flow. […] Electrocardiograms recorded during ischemia of Example III were analyzed for the number of premature ventricular depolarizations (PVD) and ventricular tachycardia (VTAC) episodes.

ischemic myocardium [9] = experiment: Coronary venous adenosine during coronary artery occlusion in dogs; format: in vivo, dog
Procedure: FIG. 3. […] Coronary venous blood was collected into chilled 2N perchloric acid at various times before and after coronary artery occlusion. Supernatants from these extracts were neutralized with alamine and freon and evaluated by high performance liquid chromotography.
as §3

[10] = tested on: patients with adenylosuccinase deficiency (autism); experiment: Therapeutic trial in patients with adenylosuccinase deficiency (autism); format: in vivo, human
Source text: Following authorization, therapeutic trials with AICA riboside were started in two patients with adenylosuccinase deficiency (autism). […] On Day 55, both patients were briefly readmitted for clinical, biochemical and psychiatric evaluation. […] Treatment was maintained until Day 71, and arrested at that date.

[11] = tested on: Mouse bone marrow-derived mast cells; experiment: Mast cell leukotriene C4 release (radioimmune assay); format: cell-based; conditions: 100 μM for six days, challenged 20 minutes with A23187; control 51
Procedure: as §1

AMP deaminase = AMP deaminase inhibition (14C-AMP to 14C-IMP conversion, lymphoblast lysate); format: biochemical, human; conditions: 200 μM of each ribotide
[12] = three-hour preincubation and four-hour incubation during 2-deoxyglucose treatment

- AICA riboside in plasma and CSF ([10]; all dosages used): could not be detected
- haematology and clinical chemistry parameters ([10]; before and during the trial treatment): found normal
- AICA riboside in plasma ([10]; one hour after intravenous administration, 20 mg/kg/day): undetectable
- concentration of ATP and GTP in the erythrocytes ([10]; patients): did not influence significantly
- urinary output of succinyladenosine, SAICA riboside and uric acid ([10]; patients): without significant effect
SMILES: NC(=O)c1ncn([C@@H]2O[C@H](CO)[C@@H](O)[C@H]2O)c1N [AICA riboside, 5-amino-4-imidazolecarboxamide riboside]
- β-hexosaminidase released ([1]; 100 micromolar, A23187 1 μg/ml, 28.8% in its absence): 17.6%
- Concentration of Adenosine ([2]; HPRT- cells, ionophore 0 μg/ml, AICA riboside 50 μM): < 0.01 µM
- correction of lowered adenosine secretion of cells deficient in hypoxanthine phosphoribosyl transferase [2]: can be corrected
- systemic arterial pressure and heart rate versus saline (ischemic myocardium [3]; dog, in vivo): no significant differences
- flow to normal myocardium (ischemic myocardium [3]; non-ischemic tissue): did not alter flow
- latency to seizure [4]: dramatic prolongation
- inosine levels in venous blood (ischemic myocardium [5]): more than twofold decrease
- adenosine release from lymphoblasts ([6]; 48-hour pretreatment, 100-500 micromolar): enhances adenosine release
- adenosine release from lymphoblasts ([6]; 18 hours preincubation before 2-deoxyglucose exposure): enhanced adenosine release
- adenosine release from lymphoblasts [6, 12]: increased adenosine release
- adenosine secreted by treated cells versus control cells ([7]; 50 μM AICA riboside, A23187 and 1.0 μM deoxycoformycin): at least twofold more adenosine
- Concentration of Adenosine ([7]; HPRT+ cells, ionophore 0 μg/ml, AICA riboside 50 μM): < 0.01 µM
- PVD, individual dogs [8]: 12 EPISODES/H and 10 EPISODES/H and 4 EPISODES/H and 13 EPISODES/H and 6 EPISODES/H
- VTAC, individual dogs [8]: 1 EPISODES/H and 0 EPISODES/H and 27 EPISODES/H
- peak coronary venous adenosine level (ischemic myocardium [9]; at 1 minute of ischemia, saline peak 0.22 ±0.08 at 10 minutes): 1.79 ± 0.35 µM
- coronary venous adenosine level (ischemic myocardium [9]; at 60 minutes of ischemia, saline undetectable, in µM): 0.18±0.15
- adenosine washout on reperfusion (ischemic myocardium [9]; reperfusion): significant rise
- adenosine in blood from the right atrium (systemic blood) (ischemic myocardium [9]; systemic sampling): no detectable adenosine
- supernatant leukotriene C4 concentration [11]: 13 nanograms/106 cells

SMILES: NC(=O)c1ncn([C@@H]2O[C@H](COP(=O)(O)O)[C@@H](O)[C@H]2O)c1N [AICA ribotide]
- AMP deaminase inhibited (AMP deaminase): 38%

- AMP deaminase inhibited (AMP deaminase): 54%
SMILES: NC(=O)c1ncn([C@@H]2O[C@H](COP(=O)(O)O)[C@@H](O)[C@H]2O)n1 [ribavirin monophosphate]

SMILES: NC(=O)c1ncn([C@@H]2O[C@H](CO)[C@@H](O)[C@H]2O)n1 [ribavirin, 1-β-D-ribofuranosyl-1H-1,2,4-triazole-3-carboxamide, reference compound]
- mediator release ([1]; 1 μM for six days): inhibits mediator release significantly
- net β-hexosaminidase release versus controls ([1]; 1, 10, or 2 μm for six days, challenged with A23187): released significantly less
- β-hexosaminidase release compared to cells cultured in media alone ([1]; three to seven days in 10 μM, washed, challenged with A23187, p<0.05): marked attenuation
- correction of lowered adenosine secretion of cells deficient in hypoxanthine phosphoribosyl transferase [2]: can be corrected
- adenosine release from lymphoblasts [6, 12]: Increased in vitro adenosine release
- adenosine release from lymphoblasts ([6]; three-hour preincubation and four-hour incubation during 2-deoxyglucose treatment, listed as ribivirin): increased adenosine release
